Where two headings read alike, the source gives them in different places.
Conditions: chicken; for Cl D7-D21 Delta (%) / Consumption D7-D21 Delta (%) / Weight gain D7-D21 Delta (%): relative to control R1
Description: The starting product is a food base that is deficient in methionine, methionine being the nutritional element for which it is desired to observe a response, and the said nutritional element that is lacking is then introduced in the reference forms and in the test form, and then the performance levels obtained in each of the systems are compared, system R1 corresponding to no introduction of methionine.
Two chickens per cage are tested, with controlled randomization by chance.
Seven treatments were carried out:
R1: without added methionine,
R2 and R3: +Rhodimet™ NP99 (D,L-methionine powder sold by the applicant) at two different doses,
R4 and R5: +Rhodimet™ AT88, at two different doses
R6 and R7: +KMB, at two different doses.
They were each repeated 14 times and are represented in Table 3 below.
Zootechnical performance levels as a function of treatments (period 7-21 days)
The smaller the number of grams required to obtain one gram of weight gain, the greater the efficiency of the product, as illustrated in the FIGURE.
The ratio of KMB efficiency to DL-methionine efficiency is then calculated by calculating the ratio of the conversion efficiency values calculated at the two doses used.

[1] = addition of 0.1% of methionine, 7-21 days, versus control
[2] = higher dose (NP99 0.200%, AT88 0.225%, KMB 0.204%)
[3] = higher dose (R3 NP99 0.200%, R5 AT88 0.225%, R7 KMB 0.204%)
[4] = lower dose (NP99 0.100%, AT88 0.113%, KMB 0.102%)
[5] = lower dose (R2 NP99 0.100%, R4 AT88 0.113%, R6 KMB 0.102%)

With `CSCCC(N)C(=O)O` (racemic) [Rhodimet™ NP99, D,L-methionine] the “decrease of the consumption index” value [1] was −11%, the “increase of the weight gain” value [1] was 90 g and the “Cl D7-D21 Delta (%)” value [2] was −9.2%. For the same compound, the “Consumption D7-D21 Delta (%)” value [2] was 5.5%, the “Weight gain D7-D21 Delta (%)” value [2] was 16.2% and the “Consumption D7-D21 (g) Means” value [3] was 823 g. The “Mortality D7-D21” value [3] was 0.0%, the “Weight gain D7-D21 (g) Means” value [3] was 527 b g and the “Cl D7-D21 Delta (%)” value [4] was −11.1%. The “Consumption D7-D21 Delta (%)” value [4] was 6.7%, the “Weight gain D7-D21 Delta (%)” value [4] was 19.8% and the “Consumption D7-D21 (g) Means” value [5] was 832 g. The “Mortality D7-D21” value [5] was 0.0% and the “Weight gain D7-D21 (g) Means” value [5] was 544 b g.
